Results: ChEMBL document CHEMBL1152405, “Bis-anthracenyl isoxazolyl amides have enhanced anticancer activity” (Bioorg Med Chem Lett, 2009)

Legend:
Format in all cases: functional
PC-3 = test: Growth inhibition of human PC3 cells after 24 hrs by MTT assay; conditions: PC-3, 24 h
KM12 = test: Growth inhibition of human KM12 cells at 10 uM after 24 hrs by MTT assay relative to control; set-up: scale not given: the % may be the effect or the level left
COLO 205 = test: Growth inhibition of human COLO205 cells at 10 uM after 24 hrs by MTT assay relative to control; set-up: scale not given: the % may be the effect or the level left
SF-295 = test: Growth inhibition of human SF295 cells after 24 hrs by MTT assay; conditions: SF-295, 24 h
SK-MEL-5 = test: Growth inhibition of human SK-MEL-5 cells after 24 hrs by MTT assay; conditions: SK-MEL-5, 24 h
TK-10 = test: Growth inhibition of human TK10 cells at 10 uM after 24 hrs by MTT assay relative to control; set-up: scale not given: the % may be the effect or the level left
A549 = test: Growth inhibition of human A549 cells at 10 uM after 24 hrs by MTT assay relative to control; set-up: scale not given: the % may be the effect or the level left
SN12C = test: Growth inhibition of human SN12C cells at 10 uM after 24 hrs by MTT assay relative to control; set-up: scale not given: the % may be the effect or the level left
HOP-92 = test: Growth inhibition of human HOP92 cells at 10 uM after 24 hrs by MTT assay relative to control; set-up: scale not given: the % may be the effect or the level left
MOLT-4 = test: Growth inhibition of human MOLT4 cells after 24 hrs by MTT assay; conditions: MOLT-4, 24 h
OVCAR-4 = test: Growth inhibition of human OVCAR4 cells at 10 uM after 24 hrs by MTT assay relative to control; set-up: scale not given: the % may be the effect or the level left
MDA-MB-468 = test: Growth inhibition of human MDA-MB-468 cells after 24 hrs by MTT assay; conditions: MDA-MB-468, 24 h
[1] = read-out: LC50 (the source's name)
[2] = read-out: pLC50 (the source's name) (converted)

Cc1onc(-c2c3ccccc3c(Cl)c3ccccc23)c1C(=O)Nc1cc(C(=O)NCCCN(C)CCCNC(=O)c2cc(NC(=O)c3c(-c4c5ccccc5c(Cl)c5ccccc45)noc3C)cn2C)n(C)c1
TGI (PC-3): 2690 nM | GI50 (PC-3; read-out: GI50): 1400 nM | CC50 (PC-3; [1]): 5190 nM | GI50 (PC-3; read-out: pGI50 (converted)): 1410 nM | CC50 (PC-3; [2]): 5250 nM | Activity (KM12): -100% | Activity (COLO 205): -100% | TGI (SF-295): 3330 nM | GI50 (SF-295; read-out: GI50): 1670 nM | GI50 (SF-295; read-out: pGI50 (converted)): 1660 nM | TGI (SK-MEL-5): 2790 nM | GI50 (SK-MEL-5; read-out: GI50): 1480 nM | CC50 (SK-MEL-5; [1]): 5280 nM | GI50 (SK-MEL-5; read-out: pGI50 (converted)): 1480 nM | CC50 (SK-MEL-5; [2]): 5250 nM | Activity (TK-10): -89.17% | Activity (A549): -59.15% | Activity (SN12C): -96.46% | Activity (HOP-92): -16.66% | TGI (MOLT-4): 2430 nM | GI50 (MOLT-4; read-out: GI50): 615 nM | CC50 (MOLT-4; [1]): 7960 nM | GI50 (MOLT-4; read-out: pGI50 (converted)): 617 nM | CC50 (MOLT-4; [2]): 7940 nM | Activity (OVCAR-4): -100% | TGI (MDA-MB-468): 2780 nM | GI50 (MDA-MB-468; read-out: GI50): 1330 nM | CC50 (MDA-MB-468; [1]): 5810 nM | GI50 (MDA-MB-468; read-out: pGI50 (converted)): 1320 nM | CC50 (MDA-MB-468; [2]): 5750 nM
